We go through 23 compounds from patent US8420634B2, “Amidine, thiourea and guanidine derivatives of 2-aminobenzothiazoles and aminobenzothiazines for their use as pharmacological agents for the treatment of neurodegenerative pathologies” (Rottapharm S.p.A., priority 2007, dated 2013).

Counter-ions that a name gives are not always drawn.

System in the first data set: not given
Experiment: not given
Settings: not given
A word on the melting point: it is the temperature of the solid-liquid transition. The compound `CCNC(=S)NC1=Nc2ccc(OC(F)(F)F)cc2SC1` [Example 33, 1-Ethyl-3-[7-(trifluoromethoxy)-2H-1,4-benzothiazin-3-yl]thiourea] registered a melting point of 199 to 201 °C.
Same read-out and setting: then `CCCNC(=S)NC1=Nc2ccccc2CS1` [Example 30, 1-(4H-3,1-benzothiazin-2-yl)-3-propylthiourea], with 180 to 184 °C.
On the same count and under the same terms, then `CCCNC(=S)NC1=Nc2ccc(OC(F)(F)F)cc2CS1` [Example 32, 1-Propyl-3-[6-(trifluoromethoxy)-4H-3,1-benzothiazin-2-yl]thiourea], with 148 to 151 °C.
Turning to `CCCNC(=S)Nc1nc2ccc(OC(F)(F)F)cc2s1` [Example 10, 1-Propyl-3-[6-(trifluoromethoxy)benzothiazol-2-yl]thiourea], the melting point was 226 to 228 °C.
With `CCCNC(=N)Nc1nc2ccc(OC(F)(F)F)cc2s1` [Example 16, 1-Propyl-3-[6-(trifluoromethoxy)benzothiazol-2-yl]guanidine], the melting point was 110 to 111 °C.
On the same count and under the same terms, with `CN/C(C)=N/C1=Nc2ccccc2SC1` (as salt: oxalate) [Example 21, N′-(2H-1,4-benzothiazin-3-yl)-N-methylacetamidine] the figure was 164 to 166 °C (dec.); with `CC(C)NC(=S)Nc1nc2ccc(OC(F)(F)F)cc2s1` [Example 11, 1-Isopropyl-3-[6-(trifluoromethoxy)benzothiazol-2-yl]thiourea], 242 °C.
In the case of `C/C(=N\C1=Nc2ccccc2SC1)N(C)C` (as salt: oxalate) [Example 22, N′-(2H-1,4-benzothiazin-3-yl)-N,N-dimethylacetamidine], the melting point is 120 to 122 °C (dec.).
For the compound `CCCCNC(=S)Nc1nc2ccc(OC(F)(F)F)cc2s1` [Example 12, 1-Butyl-3-[6-(trifluoromethoxy)benzothiazol-2-yl]thiourea], the melting point came out at 211 °C.
On the same count and under the same terms, then `CN/C(C)=N/C1=Nc2ccccc2CS1` (as salt: oxalate) [Example 17, N′-(4H-3,1-benzothiazin-2-yl)-N-methylacetamidine], with 110 to 113 °C (dec.); and `CCNC(=N)Nc1nc2ccc(OC(F)(F)F)cc2s1` [Example 15, 1-Ethyl-3-[6-(trifluoromethoxy)benzothiazol-2-yl]guanidine], with 127 to 129 °C; and `CCNC(=S)NC1=Nc2ccc(OC(F)(F)F)cc2CS1` [Example 31, 1-Ethyl-3-[6-(trifluoromethoxy)-4H-3,1-benzothiazin-2-yl]thiourea], with 169 to 172 °C.
On the same count and under the same terms, with `C/C(=N\C1=Nc2ccccc2CS1)N(C)C` (as salt: oxalate) [Example 18, N′-(4H-3,1-benzothiazin-2-yl)-N,N-dimethylacetamidine] the figure was 154 to 157 °C (dec.).
`Fc1ccc(NC(=S)Nc2nc3ccc(OC(F)(F)F)cc3s2)cc1` [Example 14, 1-(4-Fluorophenyl)3-[6-(trifluoromethoxy)benzothiazol-2-yl]thiourea] yielded a melting point of 207 °C.
Take `FC(F)(F)Oc1ccc2nc(NC(=S)Nc3ccccc3)sc2c1` [Example 13, 1-Phenyl-3-[6-(trifluoromethoxy)benzothiazol-2-yl]thiourea]: the melting point is 234 °C.
Consider `CCNC(=S)Nc1nc2ccc(OC(F)(F)F)cc2s1` [Example 9, 1-Ethyl-3-[6-(trifluoromethoxy)benzothiazol-2-yl]thiourea], for which the melting point was in the range of 199 to 200 °C.
The same measure, in the same setting: then `CCCNC(=S)NC1=Nc2ccc(OC(F)(F)F)cc2SC1` [Example 34, 1-Propyl-3-(7-trifluoromethoxy-2H-1,4-benzothiazin-3-yl)thiourea], with 180 to 182 °C; and `CCNC(=S)NC1=Nc2ccccc2CS1` [Example 29, 1-(4H-3,1-benzothiazin-2-yl)-3-ethylthiourea], with 191 to 196 °C.

In another data set the test system is cortical slices. In words: in vitro ischemia (oxygen-glucose deprivation/re-oxygenation): glutamate released during re-oxygenation. To be noted: rat cortical slices, concentrations of 0.1-1 μM. Format: cell-based. As to the method:
(§1) Said in vitro ischemia model is generally accepted as a comprehensive model for the study and selection of products with neuroprotective activity.
Male Sprague-Dawley rats (350-450 g; Charles River Italia, Calco, Italy) have been sacrificed following anaesthesia (i.p. injection of 30 mg/kg ketamine hydrochloride and 8 mg/kg xylazine hydrochloride). The brain is rapidly removed and placed in aCSF (artificial Cerebro Spinal Fluid, composition expressed in mM: 120 NaCl, 2.5 KCl, 1.3 MgCl2, 1.0 NaH2PO4, 1.5 CaCl2, 26 NaHCO3, 11 glucose, saturated with 95% O2 −5% CO2, with a final pH of 7.4, osmolarity 285-290 mOsmol). The cortex is removed and sectioned into slices 400 μm thick.
The slices are then maintained in oxygenated aCSF supplemented with 400 μM ascorbic acid for 1 hour at room temperature.
Cortical slices total weight 33.6±2.6 mg, n=10) are incubated at 37° C., in 2 ml aCSF under a flow of 95% O2/5% CO2 for a period of 30 minutes. Oxygen-glucose deprivation is then implemented for 30 minutes by incubating in aCSF where the glucose has been substituted by sucrose and the oxygen mix air flow replaced with 95% N2/5% CO2. After the period of oxygen-glucose deprivation, the slices are placed in oxygenated aCSF for 90 minutes (re-oxygenation). In the treated samples, the compound of formula I is dissolved in aCSF at the concentrations described.
(§2) Neuronal damage is assessed quantitatively by measuring the glutamate and lactate dehydrogenase (LDH) released into the aCSF during the period of re-oxygenation. In particular, glutamate is measured fluorimetrically (excitation at 366 nm; emission at 450 nm) using the conversion of NAD^+ to NADH catalysed by glutamate dehydrogenase (Eilers et al., 1999) while LDH activity is determined spectrophotometrically by measuring the reduction in absorbance at 340 nm via the oxidation of NADH to NAD^+ (Gay et al., 1968).
All experiments have been conducted using slices obtained from at least 4 different rats. Data is reported as the S.E.M. and “n” is defined as the sample number. Data for glutamate and LDH activity is expressed as nmol/mg tissue and U/mg tissue, respectively. One unit (U) of LDH activity is defined as the correspondent yielding one micromole of lactate in one minute. Statistical analyses have been conducted using ANOVA followed by post-hoc Dunnett tests (GraphPad INSTAT v3.00, GraphPad Software, San Diego, Calif., USA).
As for `C/C(=N/c1nc2ccc(OC(F)(F)F)cc2s1)N(C)C` [Example 5, N,N-dimethyl-N′-[6-(trifluoromethoxy)benzothiazol-2-yl]acetamidine], the “reduction in glutamate release” value was “remarkable reduction (a reduction in glutamic acid release and/or LDH activity to a value comprised of between 10% and 50% of that of the control sample)”.
Same read-out and setting: with `CN/C(C)=N/C1=Nc2ccccc2CS1` [Example 17, N′-(4H-3,1-benzothiazin-2-yl)-N-methylacetamidine] the entry was “remarkable reduction (a reduction in glutamic acid release and/or LDH activity to a value comprised of between 10% and 50% of that of the control sample)”; with `C/C(=N\C1=Nc2ccccc2CS1)N(C)C` [Example 18, N′-(4H-3,1-benzothiazin-2-yl)-N,N-dimethylacetamidine], “remarkable reduction (a reduction in glutamic acid release and/or LDH activity to a value comprised of between 10% and 50% of that of the control sample)”.
On the same count and under the same terms, with `CN/C(C)=N/C1=Nc2ccccc2SC1` [Example 21, N′-(2H-1,4-benzothiazin-3-yl)-N-methylacetamidine] the entry was “remarkable reduction (a reduction in glutamic acid release and/or LDH activity to a value comprised of between 10% and 50% of that of the control sample)”; with `CCCCNC(=S)Nc1nc2ccc(OC(F)(F)F)cc2s1` [Example 12, 1-Butyl-3-[6-(trifluoromethoxy)benzothiazol-2-yl]thiourea], “remarkable reduction (a reduction in glutamic acid release and/or LDH activity to a value comprised of between 10% and 50% of that of the control sample)”.
Take `CCN(CC)/C(C)=N/C1=Nc2ccccc2CS1` [Example 19, N′-(4H-3,1-benzothiazin-2-yl)-N,N-diethylacetamidine]: the “reduction in glutamate release” value was “remarkable reduction (a reduction in glutamic acid release and/or LDH activity to a value comprised of between 10% and 50% of that of the control sample)”.

Still in this data set, the particulars now being: rat cortical slices, concentrations of 0.1-10 μM.
Regarding `CCCNC(=N)Nc1nc2ccc(OC(F)(F)F)cc2s1` [Example 16, 1-Propyl-3-[6-(trifluoromethoxy)benzothiazol-2-yl]guanidine], the “reduction in glutamate release” value is “remarkable reduction (a reduction in glutamic acid release and/or LDH activity to a value comprised of between 10% and 50% of that of the control sample)”.

The next data set deals with cortical slices. Briefly: in vitro ischemia (oxygen-glucose deprivation/re-oxygenation): LDH activity released during re-oxygenation. The following applies: rat cortical slices, concentrations of 0.1-1 μM. Format: cell-based. As to the method:
as §1
Male Sprague-Dawley rats (350-450 g; Charles River Italia, Calco, Italy) have been sacrificed following anaesthesia (i.p. injection of 30 mg/kg ketamine hydrochloride and 8 mg/kg xylazine hydrochloride). The brain is rapidly removed and placed in aCSF (artificial Cerebro Spinal Fluid, composition expressed in mM: 120 NaCl, 2.5 KCl, 1.3 MgCl2, 1.0 NaH2PO4, 1.5 CaCl2, 26 NaHCO3, 11 glucose, saturated with 95% O2 −5% CO2, with a final pH of 7.4, osmolarity 285-290 mOsmol). The cortex is removed and sectioned into slices 400 μm thick. […]
as §2
All experiments have been conducted using slices obtained from at least 4 different rats. […] Data for glutamate and LDH activity is expressed as nmol/mg tissue and U/mg tissue, respectively. […]
In the case of `CCNC(=S)Nc1nc2ccc(OC(F)(F)F)cc2s1` [Example 9, 1-Ethyl-3-[6-(trifluoromethoxy)benzothiazol-2-yl]thiourea], the “reduction in LDH activity” value was “remarkable reduction (a reduction in glutamic acid release and/or LDH activity to a value comprised of between 10% and 50% of that of the control sample)”.
